Measured values as given in patent US9675627B2, “Dosing regimens for treating and/or preventing cerebral amyloidoses” (Amicus Therapeutics, Inc., priority 2014, dated 2017).

Experiments:
[1] = test system: Aβ; test: Aβ assay (ELISA of monomeric Aβ, dot blot of oligomers) in brain; assay type: in vivo, Dutch APP^E693Q transgenic mice; conditions: 3-month treatment, any dose tested
Protocol: The generation and characterization of Dutch APPE693Q mice transgenic mice is described in Gandy, S., et al. Days to criterion as an indicator of toxicity associated with human Alzheimer amyloid-beta oligomers. Annals of neurology 68, 220-230 (2010). 3-month-old male Dutch APP^E693Q mice transgenic mice were orally gavaged 5 days/week with either vehicle (water) (n=15) or 3, 10, 30 or 100 mg/kg AdDNJ for 3 months (n=13). All animal studies were approved and conducted in accordance with the Institutional Animal Care and Usage Committee. Mice were kept in a pathogen-free environment, on a 12-hour light/dark cycle and given ad libitum access to food and water. At 6 month of age treatment groups, and a 3-month-old untreated baseline group (n=15), were cognitively assessed in the NOR, EPM and FC tests. 48 hours following the final dose mice were perfused with ice-cold 1×PBS. The brain was removed and dissected into two hemispheres. One half was snap-frozen on dry ice and stored at −80° C. for biochemistry; the other half was post-fixed in 4% paraformaldehyde then sagittally sectioned on a vibratome into 30 μm sections and stored at 4° C. in storage buffer until histological analyses.
Right hemibrains were processed via differential detergent solubilizationin accordance with Kawarabayashi, T., et al. Age-dependent changes in brain, CSF, and plasma amyloid (beta) protein in the Tg2576 transgenic mouse model of Alzheimer's disease. J Neurosci 21, 372-381 (2001). For analysis of native oligomeric Aβ protein structure, 2-4 μL native protein samples from TBS-soluble were spotted onto activated/pre-wetted PVDF membrane (0.22 μm; Millipore) and allowed to dry. Following protein spotting, membranes were blocked for 1 h at room temperature in 5% w/v non-fat milk (Santa Cruz) in TBS containing 0.1% v/v Tween-20 (Fisher Scientific; TBS-T). Membranes were then incubated in the indicated primary antibody (in 5% milk/TBS-T) overnight at 4 C, washed 4× in TBS-T, incubated in species-specific HRP-conjugated secondary antibody (in 5% milk/TBS-T) for 1 h at room temperature, and then washed 4× in TBS-T. Membranes were subsequently developed with ECL Western blotting substrate (Pierce) using the Fujifilm LAS-3000 developer. Membranes were then washed 1× in TBS-T and stripped in low pH stripping buffer [25 mM Glycine HCl, pH 2.0 and 1% w/v SDS] with vigorous shaking to remove primary and secondary antibody, washed 3× in TBS-T, and blocked for 1 h (in 5% milk/TBS-T) at room temperature before probing with the next primary antibody. Integrated density of immunoreactive spots was measured using MultiGauge Software (FujiFilm) and normalized to % control (vehicle). Generation, purification, and characterization of rabbit pAβ A11 (anti-prefibrillar oligomers, 0.5 μg/ml), rabbit pAβ OC (anti-fibrillar oligomers and fibrils; 0.25 μg/ml) and mouse mAβ Nu-4 (anti-oligomers; 1 μg/ml) have been described previously (Tomic, J. L., Pensalfini, A., Head, E. & Glabe, C. G. Soluble fibrillar oligomer levels are elevated in Alzheimer's disease brain and correlate with cognitive dysfunction. Neurobiology of disease 35, 352-358 (2009); Lambert, M. P., et al. Monoclonal antibodies that target pathological assemblies of Abeta. Journal of neurochemistry 100, 23-35 (2007)). […] To quantify monomeric Aβ levels, human/rat Aβ 1-40/1-42 ELISA kits (Wako) were used according to the manufacturer's instructions. […]

[2] = test system: SH-SY5Y cells; test: Cell viability, tetrazolium-formazan conversion; assay type: cell-based, human; conditions: concentrations as high as 1 mM, up to 120 hours
Protocol: Viability of human fibroblast (CRL2076) and human neuroblastoma (SH-SY5Y) cells was tested after prolonged exposure to varying concentrations of AdDNJ. In a 96-well plate, fibroblasts were incubated in complete media containing increasing concentrations of AdDNJ up to 1 mM for either 72 or 120 hours at 37° C. in a humidified 8% CO2 incubator. Living cells were quantified using a tetrazoliuim-formazan conversion method according to the manufacturer's instructions (Promega Non-Radioactive 96-well Titer assay, TB112). SH-SY5Y cells were tested in the same manner as fibroblasts but plated in collagen-coated plates (Nunc #152036). After 24 hour, 48 hour and 120 hour exposure to AdDNJ, living SH-SY5Y cells were quantified as described above. All dosing concentrations were done in triplicate.

[3] = target: T1, β-galactosidase (β-Gal) (Homo sapiens, UniProt P16278); test: Selectivity: beta-galactosidase activity in fibroblast lysate; assay type: biochemical; conditions: 10 μM, the highest concentration tested
T1 construct: wild-type fibroblast (CRL2076) pellets (˜2.5e6 cells/pellet) were lysed; host or cells: wild-type fibroblasts CRL2076, lysate
T1 sequence (P16278 29-677): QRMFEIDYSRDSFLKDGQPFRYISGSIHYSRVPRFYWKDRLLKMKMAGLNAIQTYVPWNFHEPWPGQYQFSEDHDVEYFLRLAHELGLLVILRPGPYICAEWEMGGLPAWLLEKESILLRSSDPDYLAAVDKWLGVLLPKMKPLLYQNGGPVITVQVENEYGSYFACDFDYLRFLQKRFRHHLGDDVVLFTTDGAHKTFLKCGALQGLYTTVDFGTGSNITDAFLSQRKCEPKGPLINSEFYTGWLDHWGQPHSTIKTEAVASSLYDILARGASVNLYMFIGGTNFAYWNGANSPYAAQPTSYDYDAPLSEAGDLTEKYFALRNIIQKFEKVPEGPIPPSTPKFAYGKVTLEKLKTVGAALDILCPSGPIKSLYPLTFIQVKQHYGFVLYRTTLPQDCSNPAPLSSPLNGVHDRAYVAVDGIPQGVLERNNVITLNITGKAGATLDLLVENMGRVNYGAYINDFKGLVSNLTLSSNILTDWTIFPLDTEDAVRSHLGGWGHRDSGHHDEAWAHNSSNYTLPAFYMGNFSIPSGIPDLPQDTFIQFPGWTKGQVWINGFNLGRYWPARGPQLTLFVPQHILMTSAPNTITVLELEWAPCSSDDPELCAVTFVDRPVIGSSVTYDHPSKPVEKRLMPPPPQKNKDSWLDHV
From the text: Enzymatic activity measurements were done in duplicate.

## CC(=O)NC1CNC(CO)[C@@H](O)C1O (stereo partly shown) [AdDNJ, 2-acetamido-1,2-dideoxynojirimycin]
[1]
  Aβ40 level: no change
  Aβ42/40 ratio: no change
  Aβ42 level: no change
  Aβ oligomer levels: no change
  prefibrillar Aβ: no change
[2]
  effect on cell viability: little or no effect on cell viability
[3]
  inhibition of β-galactosidase (β-Gal): did not inhibit
